In US5861405A, “S-substituted 1,3,7-trialkyl-xanthine derivatives” (priority 1994, dated 1999):
Read-outs that look alike come from different tables or passages of the source.

Assays:
[1] = target: T1, rat A1 cortical receptors (Rattus norvegicus, UniProt P25099); assay: Radioligand binding, [3H]N6-phenylisopropyladenosine ([3H]PIA), rat cortical A1 receptors; conditions: for Ki: vs [3H]PIA (1 nM), read-out: Ki (A1); for inhibition at 10 µM: 1.5 h, at 10^-5, vs [3H]PIA, read-out: Percent displacement of specific binding (A1)
T1 construct: Rat cerebral cortical membranes and striatal membranes were prepared; from tissue; host or cells: rat cerebral cortex membranes
T1 sequence (P25099 1-326): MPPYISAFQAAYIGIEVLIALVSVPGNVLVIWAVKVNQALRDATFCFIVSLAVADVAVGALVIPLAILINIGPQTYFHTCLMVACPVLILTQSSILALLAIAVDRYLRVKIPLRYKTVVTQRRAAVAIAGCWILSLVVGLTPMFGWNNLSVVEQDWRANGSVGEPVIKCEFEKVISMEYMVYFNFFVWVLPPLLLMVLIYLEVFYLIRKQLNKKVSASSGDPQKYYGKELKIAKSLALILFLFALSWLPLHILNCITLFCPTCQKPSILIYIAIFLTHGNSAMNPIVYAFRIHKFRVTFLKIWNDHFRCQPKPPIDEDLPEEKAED

[2] = target: rat striatal A2a receptors (Rattus norvegicus, UniProt P30543); assay: Radioligand binding, [3H]CGS 21680, rat striatal A2a receptors; set-up: Rat cerebral cortical membranes and striatal membranes were prepared; from tissue; host or cells: rat striatal membranes
rat striatal A2a receptors, sequence (P30543 whole entry): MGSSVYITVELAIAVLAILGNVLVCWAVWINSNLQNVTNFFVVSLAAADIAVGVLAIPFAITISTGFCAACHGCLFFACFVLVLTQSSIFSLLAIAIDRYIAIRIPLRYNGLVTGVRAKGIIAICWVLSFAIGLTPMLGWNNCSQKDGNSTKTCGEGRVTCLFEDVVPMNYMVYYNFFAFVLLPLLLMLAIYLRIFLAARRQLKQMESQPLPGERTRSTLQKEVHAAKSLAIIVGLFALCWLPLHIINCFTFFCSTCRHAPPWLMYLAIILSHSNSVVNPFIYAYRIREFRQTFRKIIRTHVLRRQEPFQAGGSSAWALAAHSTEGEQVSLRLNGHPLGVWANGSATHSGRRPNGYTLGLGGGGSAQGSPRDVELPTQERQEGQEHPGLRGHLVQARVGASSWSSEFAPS

[3] = Table I, vs [3H]CGS21680 (5 nM), rat striatal A2 receptors, read-out: Ki (A2a)
[4] = vs [3H]CGS 21680, read-out: Ki value / affinity at A2 receptors
[5] = Table III, vs [3H]CGS21680 (5 nM), read-out: Ki (A2)
[6] = Table IV, vs [3H]CGS21680 (5 nM), read-out: Ki (A2)

| Compound | Ki ([1]; Table I, rat A1 receptors) | A1/A2a ratio ([2]; Table I, ratio of Ki values) | Ki [2, 3] | also measured |
| --- | --- | --- | --- | --- |
| COc1cc(/C=C/c2nc3c(c(=O)n(C)c(=O)n3C)n2C)cc(OC)c1OCCCCN [Compound 38, 1,3,7-Trimethyl-8-[3,5-dimethoxy-4-[4-aminobutyloxy]styryl]xanthine] | 6170 nM | 36 | 173 ± 43 nM | – |
| COc1cc(/C=C/c2nc3c(c(=O)n(C)c(=O)n3C)n2C)cc(OC)c1O [Compound 35] | 8700 nM | 19 | 450 ± 66 nM | potency or selectivity in binding, in words ([2]; rat A1 and A2 binding): moderately selective |
| Cn1c(=O)c2c(nc(/C=C/C(=O)O)n2C)n(C)c1=O [C(O)OH(Rβ = H), 8-(trans-2-Carboxyvinyl)-1,3,7-trimethylxanthine] | – | – | – | Ki ([1]; Table III): > 100000 nM; A1/A2 ratio ([2]; Table III): > 3; Ki [2, 5]: 30000 nM |
| CCCn1c(=O)c2c(nc(/C=C/c3cccc([N+](=O)[O-])c3)n2C)n(CCC)c1=O [Compound 48] | 272 ± 68 nM | 4.8 | 56.2 ± 6.8 nM | – |
| Cn1c(=O)c2[nH]c(/C=C/c3cccc(N)c3)nc2n(C)c1=O [Compound 22a, 1,3-Dimethyl-8-(3-aminostyryl)xanthine] | 288 ± 60 nM | 1.4 | 202 ± 79 nM | – |
| Cn1c(=O)c2c(nc(/C=C/c3cccc(Br)c3)n2C)n(C)c1=O [Compound 28b] | 3520 nM | 120 | 29.2 ± 3.1 nM | – |
| Cn1c(=O)c2c(nc(/C=C/c3cccc(I)c3)n2C)n(C)c1=O [Compound 28c] | 2370 nM | 61 | 38.6 ± 12.5 nM | – |
| COc1cc(/C=C/c2nc3c(c(=O)n(C)c(=O)n3C)n2C)cc(OC)c1 [Compound 33b, 1,3,7-Trimethyl-8-(3,5-dimethoxystyryl)xanthine] | – | > 200 | 75.3 ± 29.1 nM | inhibition at 10 µM [1]: 12.5 ± 6.3% |
| COc1ccccc1/C=C/c1nc2c([nH]1)c(=O)n(C)c(=O)n2C [Compound 17a, 1,3-Dimethyl-8-(2-methoxystyryl)xanthine] | 1730 nM | 2.7 | 645 ± 144 nM | – |
| COc1cc(/C=C/c2nc3c(c(=O)n(C)c(=O)n3C)n2C)cc(OC)c1OC/C=C/CNC(C)=O [Compound 41] | – | > 50 | 216 ± 40 nM | inhibition at 10 µM [1]: 17 ± 7% |
| COc1cc(/C=C/c2nc3c(c(=O)n(C)c(=O)n3C)n2C)cc(OC)c1OC/C=C/CN [Compound 40] | 6280 nM | 28 | 228 ± 20 nM | – |
| Cn1c(=O)c2c(nc(/C=C/c3cccc([N+]#N)c3)n2C)n(C)c1=O [Compound 28d] | 2990 nM | 46 | 64.8 ± 19.6 nM | – |
| Cn1c(=O)c2c(nc(CCc3cccc(N)c3)n2C)n(C)c1=O [Compound 57, 1,3,7-Trimethyl-8-[2-(3-aminophenyl)ethyl]xanthine] | – | – | – | inhibition at 10 µM [1]: 15%; fold less potent at A2 receptors than 22b [2]: ~ 300 fold; Ki [2, 6]: 18000 nM |
| COc1ccc(/C=C/c2nc3c([nH]2)c(=O)n(C)c(=O)n3C)cc1OC [Compound 32a, 1,3-Dimethyl-8-(3,4-dimethoxystyryl)xanthine] | 5340 nM | – | 1100 nM | A1/A2a ratio [2]: 48 |
| Cn1c(=O)c2c(nc(/C=C/c3cccc(C(F)(F)F)c3)n2C)n(C)c1=O [Compound 20b, 1,3,7-Trimethyl-8-(3-trifluoromethylstyryl)xanthine] | 3330 nM | 25 | 134 ± 44 nM | – |
| CCC/C=C/c1nc2c(c(=O)n(C)c(=O)n2C)n1C [n-propyl(Rβ = H)] | – | – | – | Ki ([1]; Table III): 6000 nM; A1/A2 ratio ([2]; Table III): 3.8; Ki [2, 5]: 1600 nM |
| COc1ccccc1/C=C/c1nc2c(c(=O)n(C)c(=O)n2C)n1C [Compound 17b, 1,3,7-Trimethyl-8-(2-methoxystyryl)xanthine] | 4760 nM | 18 | 267 ± 84 nM | – |
| COc1ccc(/C=C/c2nc3c(c(=O)n(C)c(=O)n3C)n2C)cc1OC [Compound 32b, 1,3,7-Trimethyl-8-(3,4-dimethoxystyryl)xanthine] | 13800 nM | – | 197 ± 33 nM | A1/A2a ratio ([2]; rat, brain membranes): 70 |
| Cn1c(=O)c2[nH]c(/C(F)=C/c3ccccc3)nc2n(C)c1=O [Compound 16] | 2190 nM | 1.4 | 2110 nM | – |
| Cn1c(=O)c2c(nc(/C=C/c3cc(F)cc(F)c3)n2C)n(C)c1=O [Compound 34b] | 14800 nM | 230 | 65 ± 9 nM | – |
| Cn1c(=O)c2[nH]c(/C=C/c3cccc([N+](=O)[O-])c3)nc2n(C)c1=O [Compound 21a, 1,3-Dimethyl-8-(3-nitrostyryl)xanthine] | 1060 nM | 2.4 | 438 ± 106 nM | – |
| CCCn1c(=O)c2c(nc(/C=C/c3ccc(OC)c(OC)c3OC)n2C)n(CCC)c1=O [Compound 55b] | 379 ± 128 nM | 5.5 | 68.5 ± 12.6 nM | – |
| C/C(=C\c1nc2c(c(=O)n(C)c(=O)n2C)n1C)c1ccccc1 [phenyl (Rβ = Me)] | – | – | – | Ki ([1]; Table III): 8680 nM; A1/A2 ratio ([2]; Table III): 6; Ki [2, 5]: 1420 nM |
| COc1ccc(/C=C/c2nc3c([nH]2)c(=O)n(C)c(=O)n3C)c(OC)c1OC [Compound 43a] | – | > 5 | 1610 nM | inhibition at 10 µM [1]: 26 ± 10% |
| Cn1c(=O)c2[nH]c(/C=C/c3cccc(F)c3)nc2n(C)c1=O [Compound 27a] | 2720 nM | 5.3 | 516 ± 99 nM | – |
| COc1cccc2cc(-c3nc4c([nH]3)c(=O)n(C)c(=O)n4C)oc12 [Compound 58a] | – | – | – | Ki ([1]; Table IV): 1700 nM; A1/A2 ratio ([2]; Table IV): 0.5; Ki [2, 6]: 3900 nM |
| COc1ccc(/C=C/c2nc3c([nH]2)c(=O)n(C)c(=O)n3C)cc1 [Compound 29a, 1,3-Dimethyl-8-(4-methoxystyryl)xanthine] | 858 ± 320 nM | 1.8 | 472 ± 132 nM | – |
| COc1cc(/C=C/c2nc3c(c(=O)n(C)c(=O)n3C)n2C)cc(OC)c1OCc1ccccc1 [Compound 37, 1,3,7-Trimethyl-8-(3,5-dimethoxy-4-benzyloxystyryl) xanthine] | 4120 nM | 30 | 139 ± 7 nM | – |
| COc1ccc(/C=C/c2nc3c(c(=O)n(C)c(=O)n3C)n2C)cc1 [Compound 29b, 1,3,7-Trimethyl-8-(4-methoxystyryl)xanthine] | 14200 nM | 44 | 327 ± 75 nM | – |

Second part, led by results:

| Ki ([1]; Table I, rat A1 receptors) | A1/A2a ratio ([2]; Table I, ratio of Ki values) | Ki [2, 3] | Compound | also measured |
| --- | --- | --- | --- | --- |
| 301 ± 64 nM | 9.1 | 33 ± 15 nM | CCCn1c(=O)c2c(nc(/C=C/c3cccc(F)c3)n2C)n(CCC)c1=O [Compound 50b] | Ki [2, 4]: ≤ 50 nM |
| 78 ± 17 nM | 0.51 | 153 ± 31 nM | CCCn1c(=O)c2[nH]c(/C=C/c3cccc(F)c3)nc2n(CCC)c1=O [Compound 50a] | – |
| 632 ± 152 nM | 3.0 | 210 ± 140 nM | CCCn1c(=O)c2[nH]c(/C=C/c3cc(OC)cc(OC)c3)nc2n(CCC)c1=O [Compound 53a] | – |
| 167 ± 39 nM | 0.77 | 216 ± 66 nM | CCCn1c(=O)c2[nH]c(/C=C/c3cccc(Cl)c3)nc2n(CCC)c1=O [Compound 51a] | – |
| 97 ± 19 nM | 1.5 | 64 ± 15.6 nM | CCCn1c(=O)c2[nH]c(/C=C/c3ccc(OC)c(OC)c3OC)nc2n(CCC)c1=O [Compound 55a] | – |
| 146 ± 25 nM | 0.42 | 346 ± 97 nM | CCCn1c(=O)c2[nH]c(/C=C/c3cc(F)cc(F)c3)nc2n(CCC)c1=O [Compound 54a] | – |
| 113 ± 21 nM | 6.0 | 18.9 ± 5.3 nM | CCCn1c(=O)c2c(nc(/C=C/c3cccc(N)c3)n2C)n(CCC)c1=O [Compound 49] | Ki [2, 4]: ≤ 50 nM |
